Test results from US20240100088A1, “NOVEL FORMULATION FOR TREATING COPPER METABOLISM-ASSOCIATED DISEASES OR DISORDERS” (Alexion Pharmaceuticals, Inc., priority 2021, published 2024).
Entries after “also recorded” stand apart in the source; their conditions may differ.

Experiments:
[1] = Phase 1 study, Dose-Proportionality Extension Period: PK of plasma total Mo and PUF Mo (incl. dose-normalized, power model); type: in vivo, healthy adult participants; conditions: any of the treatments evaluated
Experimental: (§1) The safety and tolerability of the 2 formulations of BC-TTM in healthy participants was also assessed. BC-TTM pharmacokinetics (PK) in plasma as measured via total molybdenum (Mo) and plasma ultrafiltrate (PUF) Mo was determined.
The Dose-Proportionality Extension Period was a re-randomized, open-label, parallel group design to assess the dose-proportionality between 2.5 mg (2×1.25 mg), 5 mg (4×1.25 mg), 10 mg (8×1.25 mg), and 30 mg (24×1.25 mg) EC mini-tablet doses. The 15 mg (12×1.25 mg) dose was not repeated during the Dose-Proportionality Extension Period.
The Dose-Proportionality Extension Period was conducted following completion of the Two-way Crossover Period of the study and after an at least 14-day washout period. Participants were re-randomized as follows: • Treatment C (N=10-12): BC-TTM 2.5 mg (2×1.25 mg EC mini-tablets) • Treatment D (N=10-12): BC-TTM 5 mg (4×1.25 mg EC mini-tablets) • Treatment E (N=10-12): BC-TTM 10 mg (8×1.25 mg EC mini-tablets) • Treatment F (N=10-12): BC-TTM 30 mg (24×1.25 ma EC mini-tablets)
The dose-proportionality evaluation included data obtained from Treatment A of the Two-way Crossover Period (12×1.25 mg EC mini-tablets) to represent a dose of 15 mg,
Re-randomized treatment assignment were based on Baseline body mass index (BMI). Two strata for Baseline BM (<25, 25 to <32 kg/m^2) were used. […]

[2] = Phase 1 study: safety and tolerability (TEAEs, TESAEs, clinical laboratory); type: in vivo, healthy adult participants
Experimental: as §1

C[N+](C)(C)CCO.C[N+](C)(C)CCO.[SH-].[SH-].[S]=[Mo]=[S] [BC-TTM, Bis-choline tetrathiomolybdate]
effect of body weight or BMI on BC-TTM PK [1]: apparently not affected; also recorded: There was no apparent effect of body | deaths or TESAEs ([2]; all treatments): No deaths or TESAEs were reported | severity of TEAEs ([2]; all treatments, except 2 Grade 4 events after Treatment B): All TEAEs were Grade 1 or 2 in severity, | safety profile and tolerability ([2]; single oral dose 2.5 mg to 30 mg as EC mini-tablets and as a 15 mg EC tablet): acceptable safety profile and was generally well-tolerated
